# In BindingDB's records for doi:10.1021/acs.jmedchem.5b00497 (Shandong University, 2016):
# Test: Inhibition of human recombinant CCR5 encoding an HIV-1-longterminal-repeat-regulated beta-galactosidase reporter gene expressed in human HeLaP4 cells assessed as reduction of interaction with HIV-1 gp160 expressed in CHO cells by cell-cell fusion assay
compound,measurement,value
Cc1nc2ccccc2n1C1CCN(CCC(c2ccccc2)c2ccccc2)CC1,IC50,0.65 µM
